{"source": "patent US10647700B2", "about": "“EZH2 inhibitor and use thereof” (TARAPEUTICS SCIENCE INC., priority 2017, dated 2020)", "key": {"[1]": {"system": "H3K27m3 methylation in Pfeiffer cells", "test": "Western Blot of H3K27m3 methylation in Pfeiffer cells", "assay_type": "cell-based", "conditions": "Homo sapiens, 72 hours treatment, H3K27m3 methylation by Western Blot", "protocol": "Meanwhile, the inventors further conducted Western Blot with Pfeiffer cells (purchased from ATCC, USA) for verification. […] Effect of compounds on H3K27m3 methylation in cells was assessed."}, "[2]": {"biological_target": "EZH2 (Homo sapiens (Human), UniProt Q15910)", "sequence (Q15910 whole entry, the tested form may be a part)": "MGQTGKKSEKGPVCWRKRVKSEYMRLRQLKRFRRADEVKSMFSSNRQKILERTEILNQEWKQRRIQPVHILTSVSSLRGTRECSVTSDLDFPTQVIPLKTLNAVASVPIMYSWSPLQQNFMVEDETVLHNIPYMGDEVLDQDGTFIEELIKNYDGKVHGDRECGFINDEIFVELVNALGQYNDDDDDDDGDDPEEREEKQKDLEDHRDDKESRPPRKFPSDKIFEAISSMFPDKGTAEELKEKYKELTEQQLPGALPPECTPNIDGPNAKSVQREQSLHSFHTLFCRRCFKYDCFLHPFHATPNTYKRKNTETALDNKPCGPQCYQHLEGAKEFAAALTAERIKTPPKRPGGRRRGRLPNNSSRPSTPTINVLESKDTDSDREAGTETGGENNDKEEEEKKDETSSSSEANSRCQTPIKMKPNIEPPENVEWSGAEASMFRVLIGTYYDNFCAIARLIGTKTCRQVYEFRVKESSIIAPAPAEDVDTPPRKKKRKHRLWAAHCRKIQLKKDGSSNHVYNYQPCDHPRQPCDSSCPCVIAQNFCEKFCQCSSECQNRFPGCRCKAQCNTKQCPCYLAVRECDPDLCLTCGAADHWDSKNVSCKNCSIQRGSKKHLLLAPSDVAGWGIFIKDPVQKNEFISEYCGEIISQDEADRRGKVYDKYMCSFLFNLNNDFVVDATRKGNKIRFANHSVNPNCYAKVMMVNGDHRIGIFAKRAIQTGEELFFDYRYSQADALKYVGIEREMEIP", "sequence (O75530 whole entry partner, the tested form may be a part)": "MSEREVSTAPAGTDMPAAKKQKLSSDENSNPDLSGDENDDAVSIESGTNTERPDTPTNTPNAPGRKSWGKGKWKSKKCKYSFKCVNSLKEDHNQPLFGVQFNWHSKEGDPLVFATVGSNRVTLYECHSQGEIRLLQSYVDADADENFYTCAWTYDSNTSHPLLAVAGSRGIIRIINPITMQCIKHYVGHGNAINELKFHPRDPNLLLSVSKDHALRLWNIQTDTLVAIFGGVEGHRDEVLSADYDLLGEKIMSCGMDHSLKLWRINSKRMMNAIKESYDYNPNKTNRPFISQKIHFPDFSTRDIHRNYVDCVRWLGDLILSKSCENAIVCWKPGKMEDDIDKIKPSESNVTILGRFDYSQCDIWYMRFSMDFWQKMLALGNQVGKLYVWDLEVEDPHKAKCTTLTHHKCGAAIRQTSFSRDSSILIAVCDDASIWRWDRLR", "sequence (Q15022 whole entry partner, the tested form may be a part)": "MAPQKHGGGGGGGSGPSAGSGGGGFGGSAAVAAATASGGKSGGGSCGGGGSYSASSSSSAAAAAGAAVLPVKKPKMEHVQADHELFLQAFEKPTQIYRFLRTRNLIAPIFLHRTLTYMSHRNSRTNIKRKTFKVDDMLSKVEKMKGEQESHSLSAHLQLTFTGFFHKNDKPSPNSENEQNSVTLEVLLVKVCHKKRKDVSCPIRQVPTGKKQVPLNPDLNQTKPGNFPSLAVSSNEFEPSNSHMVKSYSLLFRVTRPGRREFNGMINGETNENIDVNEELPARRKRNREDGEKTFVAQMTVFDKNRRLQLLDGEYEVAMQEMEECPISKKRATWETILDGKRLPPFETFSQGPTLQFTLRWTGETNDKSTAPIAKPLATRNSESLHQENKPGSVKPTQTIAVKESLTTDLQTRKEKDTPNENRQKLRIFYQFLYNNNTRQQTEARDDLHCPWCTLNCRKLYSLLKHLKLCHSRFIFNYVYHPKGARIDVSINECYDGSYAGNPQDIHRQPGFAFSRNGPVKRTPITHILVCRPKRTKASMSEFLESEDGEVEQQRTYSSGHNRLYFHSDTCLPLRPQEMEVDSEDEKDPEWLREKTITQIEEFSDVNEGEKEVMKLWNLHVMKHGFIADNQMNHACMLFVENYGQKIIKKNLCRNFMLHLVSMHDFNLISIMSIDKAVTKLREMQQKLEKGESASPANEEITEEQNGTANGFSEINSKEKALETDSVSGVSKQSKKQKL", "sequence (Q09028 whole entry partner, the tested form may be a part)": "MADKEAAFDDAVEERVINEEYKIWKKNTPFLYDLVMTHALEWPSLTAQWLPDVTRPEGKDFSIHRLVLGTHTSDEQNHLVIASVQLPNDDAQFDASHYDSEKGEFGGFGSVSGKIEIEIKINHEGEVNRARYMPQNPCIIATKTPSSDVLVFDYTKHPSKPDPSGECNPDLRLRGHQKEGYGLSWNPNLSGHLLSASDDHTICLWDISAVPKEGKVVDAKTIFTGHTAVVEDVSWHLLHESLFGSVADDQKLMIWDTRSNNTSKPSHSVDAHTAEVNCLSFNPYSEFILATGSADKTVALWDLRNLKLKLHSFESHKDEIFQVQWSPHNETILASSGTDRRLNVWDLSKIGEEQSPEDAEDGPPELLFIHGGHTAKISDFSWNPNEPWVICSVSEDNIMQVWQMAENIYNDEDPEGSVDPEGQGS", "test": "E-cadherin promoter luciferase reporter gene primary screening in 293T cells", "assay_type": "cell-based", "conditions": "293T cells treated for 24 hours, Dual-Glo luciferase", "source_text": "EZH2 suppresses the expression of downstream E-cadherin, and upon EZH2 suppression, expression of E-cadherin will increase. Based on such principle, a reporter gene expression vector was constructed using luciferase.\nThe amplified fragments after PCR and the PGL4.1 vector (purchased from TAKARA, Japan) were respectively subjected to enzyme digestion with SacI and BglII (purchased from TAKARA, Japan), and then purified with PCR cleanup kit (Axygen PCR cleanup kit). Subsequently, the purified and enzyme-digested PCR products was ligated to the purified and enzyme-digested PGL4.1 vector using ligase solution I (DNA Ligation Kit Ver.2.1, purchased from TAKARA, Japan), and subjected to transformation. Single clones were then screened out and subjected to sequencing, and the obtained positive plasmid containing promoter fragments of Ecadherin was named E-cadherin RE-PGL4.1.\nMeanwhile, a Renilla fluorescent vector was constructed using PCDNA4.1 (purchased from Thermofisher, USA) as the template to amplify the fragment of CMV promoter. After enzymatic digestion of the amplified CMV sequences and pGL4.70 vector (purchased from Promega, USA) with KpnI and XhoI (purchased from Promega, USA), purification was conducted with PCR cleanup kit (Axygen PCR cleanup kit). Then the enzyme-digested PCR product was ligated to the enzyme-digested PGL4.70 vector using ligase solution I (DNA Ligation Kit Ver.2.1, purchased from TAKARA, Japan) and the resultant was subjected to transformation. Subsequently single clones were screened and subjected to sequencing, and the obtained plasmid that contained CMV sequence was named as Plasmid Renilla luciferase-pGL4.70. Said plasmid utilized CMV promoter to achieve high expression of Renilla luciferase, which served as the control fluorescence for the primary screening system.\nThe cells were firstly added with 20 μL Dual-Glo® Luciferase Assay Reagent, then incubated under room temperature for 10 minutes, and read on microplate reader Spectramax i3 (Molecular Devices, USA) to obtain the data of primary screening, which is shown in Table 1."}, "[3]": {"biological_target": "PRC2 protein complex comprising EZH2(Y641F) (Homo sapiens (Human), UniProt Q15910, Y641F)", "sequence (Q15910 whole entry Y641F)": "as the sequence (Q15910 whole entry, the tested form may be a part) above, with Y641F counted along it", "sequence (O75530 whole entry partner)": "as the sequence (O75530 whole entry partner, the tested form may be a part) above", "sequence (Q15022 whole entry partner)": "as the sequence (Q15022 whole entry partner, the tested form may be a part) above", "sequence (Q09028 whole entry partner)": "as the sequence (Q09028 whole entry partner, the tested form may be a part) above", "sequence (Q6ZN18 whole entry partner)": "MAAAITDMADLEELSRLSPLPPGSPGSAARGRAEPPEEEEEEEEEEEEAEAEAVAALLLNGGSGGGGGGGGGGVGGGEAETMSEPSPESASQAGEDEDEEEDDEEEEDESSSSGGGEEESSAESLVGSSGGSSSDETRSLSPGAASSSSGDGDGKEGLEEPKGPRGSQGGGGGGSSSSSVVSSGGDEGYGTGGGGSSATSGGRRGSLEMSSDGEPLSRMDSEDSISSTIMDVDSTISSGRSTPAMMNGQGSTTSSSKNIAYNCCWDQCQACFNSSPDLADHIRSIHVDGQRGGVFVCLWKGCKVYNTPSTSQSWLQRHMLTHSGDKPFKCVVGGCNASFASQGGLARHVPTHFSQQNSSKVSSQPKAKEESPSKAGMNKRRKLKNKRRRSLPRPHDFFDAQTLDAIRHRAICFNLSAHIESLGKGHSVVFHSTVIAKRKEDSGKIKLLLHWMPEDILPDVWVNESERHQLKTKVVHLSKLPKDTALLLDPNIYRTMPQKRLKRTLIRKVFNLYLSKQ", "test": "EZH2(Y641F) TR-FRET enzymatic activity assay", "quoted_text": "Subsequently 5 μL of the assay antibody, H3K27me3-Eu(K)Ab (purchased from cisbio bioassays, USA, #61 KC3KAE) and 5 μL Streptavidin-XL665 (purchased from cisbio bioassays, USA, #610SAXLA), were added and incubated for 1 hour at room temperature."}}, "note": "pIC50: −log10 of the molar value."}
{"compound": "CCN(C(=O)C1CCCC1)c1cc(-c2ccc(CN3CCNCC3)cc2)cc(C(=O)NCc2c(C)cc(C)[nH]c2=O)c1C", "note": "[Compound 25, N-((4,6-dimethyl-2-oxo-1,2-dihydropyridin-3-yl)methyl)-5-(N-ethylcyclopentanecarboxamido)-4-methyl-4′-((4-piperazin-1-yl)methyl)-4-methyl-[1,1′-diphenyl]-3-carboxamide]", "values": [{"measurement": "IC50", "setting": "[1]", "result": 0.063, "unit": "µM"}, {"measurement": "1 μM relative fluorescence intensity", "setting": "[2]; compound 1 μM", "result": 116.28}, {"measurement": "10 μM relative fluorescence intensity", "setting": "[2]; compound 10 μM", "result": 228.14}, {"measurement": "pIC50", "setting": "[3]", "result": 7.23}, {"measurement": "activity compared with control compounds in the assay using a TR-FRET kit", "setting": "[3]; versus GSK126 and EPZ6438", "result": "superior activity than control compounds GSK126 and EPZ6438"}]}
